According to US10815219B2, “2,4-diaminoquinazoline derivatives for inhibiting endoplasmic reticulum (ER) stress” (The Board of Regents of the University of Oklahoma, priority 2017, dated 2020):
Where two headings read alike, the source gives them in different places.

Tested on: INS-1 cells
Assay: INS-1 cell survival after Tm treatment (CellTiter-Glo, intracellular ATP)
Type: cell-based, rat
Conditions: for Maximum activity: % rescue from Tm (0.1 μg/mL)-induced reduction of cell viability, Tm alone 0%, DMSO 100%
Procedure: A structure-activity-relationship (SAR) study was thus conducted to improve the weak potency of lead compound 5a. Newly synthesized or commercially available compounds were tested for their β-cell-protective activity against ER stress in rat INS-1 β-cells. […] Maximum activity value in the tables is reported as % rescue from Tm (0.1 μg/mL)-induced reduction of cell viability. The values for Tm treatment alone and control (DMSO, without Tm) treatment are designated as 0% and 100%, respectively in all tables. EC50 values (the concentrations that reach half-maximal activity) for INS-1 cell viability were calculated with GraphPad Prism from the data of ten 2-fold serial titration points in all tables. All experiments were performed in triplicate in all tables.
INS-1 cells or βTC6 cells were seeded at 3×10^3 cells/well in a 384-well plate and treated with compounds at the indicated concentrations. After 3 d treatment, the medium was aspirated and 20 μL/well of CellTiter-Glo reagent (Promega, WI, USA) was added for the detection of intracellular ATP levels. Cell viability was measured with an EnVision multilabel plate reader (PerkinElmer, MA, USA).

[1] = INS-1 cell viability, Tm 0.1 μg/mL, 72 h, ten 2-fold serial titration points, Table 2, read-out: EC50
[2] = INS-1 cell viability in presence of Tm, read-out: EC50
[3] = INS-1 cell viability, Tm 0.1 μg/mL, 72 h, ten 2-fold serial titration points, Table 3, read-out: EC50
[4] = INS-1 cell viability, Tm 0.1 μg/mL, 72 h, ten 2-fold serial titration points, Table 1, read-out: EC50

Row | Structure (SMILES) | Maximum activity (72 h, Table 2) | EC50 [1] | Maximum activity (72 h, Table 1) | EC50 [4] | also measured
1 | OCC1CCCCN1c1nc(NCCc2ccc(Br)cc2)c2ccccc2n1 (stereo not drawn) [Compound 6d] | 52.8% | 0.34 ± 0.09 µM |  |  | 
2 | OCC1CCCN1c1nc(NCCc2ccccc2)c2ccccc2n1 (stereo not drawn) [Compound 5a, (1-(4-(phenethylamino)quinazolin-2-yl)pyrrolidin-2-yl)methanol] |  |  | 54.4% |  | EC50 [2]: ~0.5 µM; EC50 (Rattus norvegicus, INS1, 72 h, INS-1 cell viability, Tm 0.1 μg/mL, 72 h, ten 2-fold serial titration points, Table 1, read-out: EC50): 0.48 ± 0.19 µM; EC50 (Rattus norvegicus, INS1, running text, INS-1 cell viability in presence of Tm, read-out: EC50): 0.48 ± 0.19 µM
3 | Nc1nc(Sc2cc(-n3cccc3)c(Cl)cc2[N+](=O)[O-])n[nH]1 [RH01687, reference compound] |  |  |  |  | concentration exhibiting the maximum protective activity (INS-1 cells, Tm 0.1 μg/mL, 72 h, based on dose-dependent curves): 30 µM
4 | COc1ccc(CNc2nc(N3CCCC3CO)nc3ccccc23)cc1OC (stereo not drawn) [Compound 8d] |  |  |  |  | Maximum activity (72 h, Table 3): 44.9%; EC50 [3]: 1.85 ± 0.39 µM
5 | OCC1CCCCN1c1nc(NCCc2ccccc2F)c2ccccc2n1 (stereo not drawn) [Compound 6k] | 60.3% | 1.46 ± 0.46 µM |  |  | 
6 | OCC1CCCN1c1nc(NCCc2ccccc2F)c2ccccc2n1 (stereo not drawn) [Compound 5j] |  |  | 52.5% | 1.7 ± 0.23 µM | 
7 | COc1ccccc1CCNc1nc(N2CCCCC2CO)nc2ccccc12 (stereo not drawn) [Compound 6n] | 46.9% | 1.6 ± 0.15 µM |  |  | 
8 | OCC1CCCCN1c1nc(NCc2ccc(Cl)cc2)c2ccccc2n1 (stereo not drawn) [Compound 9b] |  |  |  |  | Maximum activity (72 h, Table 3): 54.7%; EC50 [3]: 0.21 ± 0.08 µM
9 | OC[C@@H]1CCCN1c1nc(NCCc2ccccc2Br)c2ccccc2n1 [Compound 5l] |  |  | 39.0% | 1.88 ± 0.32 µM | 
10 | OCC1CCCCN1c1nc(NCCc2cccc(F)c2)c2ccccc2n1 (stereo not drawn) [Compound 6g] | 57.3% | 1.88 ± 0.18 µM |  |  | 
11 | Cc1ccc(CCNc2nc(N3CCCCC3CO)nc3ccccc23)cc1 (stereo not drawn) [Compound 6e] | 33.6% | 0.14 ± 0.04 µM |  |  | 
12 | OCC1CCCCN1c1nc(NCCc2ccccc2)c2ccccc2n1 (stereo not drawn) [Compound 6a] | 55.7% | 0.36 ± 0.21 µM |  |  | 
13 | OCC1CCCN1c1nc(NCCc2cccc(F)c2)c2ccccc2n1 (stereo not drawn) [Compound 5f] |  |  | 51.3% | 1.15 ± 0.19 µM | 
14 | OCC1CCCCN1c1nc(NCCc2cccc(Cl)c2)c2ccccc2n1 (stereo not drawn) [Compound 6h] | 46.2% | 0.79 ± 0.3 µM |  |  | 
15 | OCC1CCCN1c1nc(NCCc2ccc(F)cc2)c2ccccc2n1 (stereo not drawn) [Compound 5b] |  |  | 56.2% | 2.13 ± 0.41 µM | 
16 | COc1cccc(CCNc2nc(N3CCCC3CO)nc3ccccc23)c1 (stereo not drawn) [Compound 5i] |  |  | 54.9% | 1.51 ± 0.13 µM | 
17 | COc1ccc(CNc2nc(N3CCCC3CO)nc3ccccc23)cc1 (stereo not drawn) [Compound 8c] |  |  |  |  | Maximum activity (72 h, Table 3): 57.2%; EC50 [3]: 4.05 ± 0.13 µM

Row | Structure (SMILES) | Maximum activity (72 h, Table 2) | EC50 [1] | Maximum activity (72 h, Table 1) | EC50 [4] | also measured
18 | OCC1CCCN1c1nc(NCCc2ccc(Cl)cc2)c2ccccc2n1 (stereo not drawn) [Compound 5c] |  |  | 57.3% | 0.51 ± 0.09 µM | EC50 [2]: ~0.5 µM
19 | OCC1CCCN1c1nc(NCCc2cccc(Br)c2)c2ccccc2n1 (stereo not drawn) [Compound 5h] |  |  | 53.2% | 0.78 ± 0.24 µM | 
20 | OCC1CCCN1c1nc(NCCc2ccccc2Cl)c2ccccc2n1 (stereo not drawn) [Compound 5k] |  |  | 50.6% | 1.44 ± 0.27 µM | 
21 | COc1ccc(CCNc2nc(N3CCCCC3CO)nc3ccccc23)cc1 (stereo not drawn) [Compound 6f] | 58.6% | 0.31 ± 0.12 µM |  |  | 
22 | OCC1CCCCN1c1nc(NCc2ccccc2)c2ccccc2n1 (stereo not drawn) [Compound 9a] |  |  |  |  | Maximum activity (72 h, Table 3): 56.4%; EC50 [3]: 0.23 ± 0.07 µM
23 | OCC1CCCCN1c1nc(NCCc2ccc(F)cc2)c2ccccc2n1 (stereo not drawn) [Compound 6b] | 47.5% | 0.31 ± 0.26 µM |  |  | EC50 improvement over 2-(hydroxymethyl)pyrrolidin-1-yl counterpart (6-series versus 5-series counterpart): ~7 fold
24 | COc1cccc(CCNc2nc(N3CCCCC3CO)nc3ccccc23)c1 (stereo not drawn) [Compound 6j] | 69.2% | 2.59 ± 0.31 µM |  |  | EC50 (INS-1 cell viability in presence of Tm): increased
25 | OCC1CCCCN1c1nc(NCCc2ccc(Cl)cc2)c2ccccc2n1 (stereo not drawn) [Compound 6c] | 57.6% | 0.17 ± 0.05 µM |  |  | 
26 | Cc1ccc(CCNc2nc(N3CCCC3CO)nc3ccccc23)cc1 (stereo not drawn) [Compound 5e] |  |  | 34.2% | 0.66 ± 0.21 µM | EC50 [2]: ~0.5 µM
27 | OCC1CCCCN1c1nc(NCCc2ccccc2Br)c2ccccc2n1 (stereo not drawn) [Compound 6m] | 44.2% | 1.41 ± 0.31 µM |  |  | 
28 | COc1ccc(CNc2nc(N3CCCCC3CO)nc3ccccc23)cc1OC (stereo not drawn) [Compound 9d] |  |  |  |  | Maximum activity (72 h, Table 3): 69.4%; EC50 [3]: 3.64 ± 0.38 µM
29 | OCC1CCCCN1c1nc(NCCc2ccccc2Cl)c2ccccc2n1 (racemic) [Compound 6l] | 51.4% | 0.47 ± 0.45 µM |  |  | 
30 | COc1ccccc1CCNc1nc(N2CCCC2CO)nc2ccccc12 (stereo not drawn) [Compound 5m] |  |  | 56.6% | 3.56 ± 0.15 µM | 
31 | OCC1CCCN1c1nc(NCCc2ccc(Br)cc2)c2ccccc2n1 (stereo not drawn) [Compound 5d] |  |  | 44.1% | 0.65 ± 0.16 µM | EC50 [2]: ~0.5 µM
32 | OCC1CCCN1c1nc(NCCc2cccc(Cl)c2)c2ccccc2n1 (stereo not drawn) [Compound 5g] |  |  | 51.5% | 1.05 ± 0.18 µM | 
33 | OCC1CCCCN1c1nc(NCCc2cccc(Br)c2)c2ccccc2n1 (stereo not drawn) [Compound 6i] | 51.7% | 0.77 ± 0.4 µM |  |  | 
